Source: patent US7256268B1, “Human high affinity choline transporter” (University of Florida Research Foundation, priority 2000, dated 2007)

Columns and labels:
[1] = target: T1, human HACT (Homo sapiens, UniProt Q9GZV3); assay: transporter assay for high affinity choline uptake (tritiated choline chloride) in transfected or infected cells; format: cell-based; conditions: 10 nM of Hemicholinium-3; cells expressing recombinant human HACT (FIG. 1: SF9 cells), 27° C., 30 min
T1 construct: expressed in transfected cells; host or cells: 293, HELA and SF9 cells (pcDNA, AAV proviral and baculoviral vectors)
T1 sequence (Q9GZV3 1-580): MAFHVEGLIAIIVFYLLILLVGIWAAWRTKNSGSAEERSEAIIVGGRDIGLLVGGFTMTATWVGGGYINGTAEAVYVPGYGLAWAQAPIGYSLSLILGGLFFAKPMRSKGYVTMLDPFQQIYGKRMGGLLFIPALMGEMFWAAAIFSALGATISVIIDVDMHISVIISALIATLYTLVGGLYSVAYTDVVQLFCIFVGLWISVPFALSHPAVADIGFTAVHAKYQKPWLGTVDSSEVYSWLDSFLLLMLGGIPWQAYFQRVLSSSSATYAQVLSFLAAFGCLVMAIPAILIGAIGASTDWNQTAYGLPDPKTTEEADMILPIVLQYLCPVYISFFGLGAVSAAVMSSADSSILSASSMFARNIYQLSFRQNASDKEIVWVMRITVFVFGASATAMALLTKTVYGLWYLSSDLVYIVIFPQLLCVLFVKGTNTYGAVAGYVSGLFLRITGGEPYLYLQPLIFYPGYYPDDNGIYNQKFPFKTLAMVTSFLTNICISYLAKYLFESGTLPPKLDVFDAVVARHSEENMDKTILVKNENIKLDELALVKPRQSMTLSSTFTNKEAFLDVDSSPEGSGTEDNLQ
Procedure: A transporter assay for high affinity choline uptake was carried out using 293, HELA, and SF9 cells that had been transfected or infected with expression vectors (several eukaryotic expression vectors including pcDNA, AAV proviral vector, and Baculoviral vectors were used) either with or without a cDNA encoding human HACT. Briefly, 2×10^5 cells were incubated with tritiated choline chloride and various amounts of Hemicholinium-3 in 500 microliter media (20 mM HEPES, pH 7.4, 140 mM NaCl, 4 mM KCl, 1 mM MgCl2, 1 mM CaCl2) at 27° C. for 30 min in each transporter assay. The cells were then pelleted and washed three times before they were solublized in 1N NaOH and the tritium content determined by liquid scintillation counting. […] Furthermore, the HACT activity was sensitive to 10 nM of Hemicholinium-3, which is characteristic of high affinity choline transporter. See e.g. Okuda et al. Nat. Neurosci. 3:120-5 (2000).

[2] = system: low affinity choline transporter, LACT; conditions: synaptosome preparations; cited from earlier work

C[N+]1(C)CCOC(O)(c2ccc(-c3ccc(C4(O)C[N+](C)(C)CCO4)cc3)cc2)C1.[Br-].[Br-] (centres unmarked) [hemicholinium-3]
sensitivity of HACT activity to Hemicholinium-3 [1]: sensitive | sensitivity of the low affinity uptake system to hemicholinium-3 [2]: insensitive
